# Laboratory results: PubChem BioAssay (NCI)
# Several values for one entry are separate records, joined by “and”; a condition that tells them apart may be missing. Identical values can stand only once.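 Values below derive from 48-hour exposures of cells grown in 96-well plates, with endpoints linearly interpolated between the two concentrations bracketing the appropriate inhibition level. GI50 is the concentration that inhibits growth by half. TGI: concentration producing complete growth inhibition.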 Activity calls are given as the source filed them. No stated cut-off is given here; in the data, active means GI50 below about 0.43 µM; inactive means the rest.
# Key:
# Assay in all cases: NCI-60 cell line screen, 48 h
# SNB-78 CNS = system: SNB-78 CNS
# NCI-H460 lung = system: NCI-H460 lung
# M14 melanoma = system: M14 melanoma
# SW-620 colon = system: SW-620 colon
# UACC-62 melanoma = system: UACC-62 melanoma
# PC-3 prostate = system: PC-3 prostate
# OVCAR-5 ovarian = system: OVCAR-5 ovarian
# UACC-257 melanoma = system: UACC-257 melanoma
# OVCAR-4 ovarian = system: OVCAR-4 ovarian
# SNB-75 CNS = system: SNB-75 CNS
# NCI-H226 lung = system: NCI-H226 lung
# SNB-19 CNS = system: SNB-19 CNS
# NCI-H23 lung = system: NCI-H23 lung
# M19-MEL melanoma = system: M19-MEL melanoma
# MALME-3M melanoma = system: MALME-3M melanoma
# COLO 205 colon = system: COLO 205 colon
# HL-60(TB) leukemia = system: HL-60(TB) leukemia
# HOP-18 NSCLC = system: HOP-18 NSCLC
# HT29 colon = system: HT29 colon
# IGROV1 ovarian = system: IGROV1 ovarian
# HS 578T breast = system: HS 578T breast
# ACHN renal = system: ACHN renal
# SR leukemia = system: SR leukemia
# KM12 colon = system: KM12 colon
# LOX IMVI melanoma = system: LOX IMVI melanoma
# U251 CNS = system: U251 CNS
# SF-295 CNS = system: SF-295 CNS
# BT-549 breast = system: BT-549 breast
# EKVX NSCLC = system: EKVX NSCLC
# K-562 leukemia = system: K-562 leukemia
# OVCAR-8 ovarian = system: OVCAR-8 ovarian
# 786-0 renal = system: 786-0 renal
# SK-MEL-5 melanoma = system: SK-MEL-5 melanoma
# SN12C renal = system: SN12C renal
# T-47D breast = system: T-47D breast
# SK-MEL-2 melanoma = system: SK-MEL-2 melanoma
# MDA-MB-231 breast = system: MDA-MB-231 breast
# DU-145 prostate = system: DU-145 prostate
# HCT-116 colon = system: HCT-116 colon
# RXF 393 renal = system: RXF 393 renal
# SF-268 CNS = system: SF-268 CNS
# MOLT-4 leukemia = system: MOLT-4 leukemia
# HCT-15 colon = system: HCT-15 colon
# DMS 114 small cell lung = system: DMS 114 small cell lung
# TK-10 renal = system: TK-10 renal
# CAKI-1 renal = system: CAKI-1 renal
# MDA-N = system: MDA-N
# HCC-2998 colon = system: HCC-2998 colon
# UO-31 renal = system: UO-31 renal
# A498 renal = system: A498 renal
# SK-OV-3 ovarian = system: SK-OV-3 ovarian
# NCI-H522 lung = system: NCI-H522 lung
# MDA-MB-435 = system: MDA-MB-435
# SK-MEL-28 melanoma = system: SK-MEL-28 melanoma
# HOP-92 NSCLC = system: HOP-92 NSCLC
# A549 NSCLC = system: A549 NSCLC
# RPMI-8226 leukemia = system: RPMI-8226 leukemia
# SF-539 CNS = system: SF-539 CNS
# OVCAR-3 ovarian = system: OVCAR-3 ovarian
# KM20L2 colon = system: KM20L2 colon
# MCF7 breast = system: MCF7 breast
# DMS 273 small cell lung = system: DMS 273 small cell lung
# CCRF-CEM leukemia = system: CCRF-CEM leukemia
# HOP-62 NSCLC = system: HOP-62 NSCLC
# LXFL 529 NSCLC = system: LXFL 529 NSCLC
smiles,measurement,setting,value
COc1cccc2c1C(=O)c1c(O)c3c(c(O)c1C2=O)C[C@@](O)(C(=O)CO)C[C@@H]3OC1CC(N)C(O)C(C)O1 (some centres not stated),TGI,SNB-78 CNS,8730 nM
same,outcome,NCI-H460 lung,inactive
same,GI50,M14 melanoma,432 nM
same,outcome,M14 melanoma,inactive
same,outcome,SW-620 colon,inactive
same,GI50,UACC-62 melanoma,149 nM
same,outcome,UACC-62 melanoma,inactive
same,outcome,PC-3 prostate,inactive
same,TGI,OVCAR-5 ovarian,5.37 µM [middle of 4 runs]
same,outcome,OVCAR-5 ovarian,inactive
same,outcome,UACC-257 melanoma,inactive
same,TGI,OVCAR-4 ovarian,5.19 µM [middle of 4 runs]
same,outcome,OVCAR-4 ovarian,inactive
same,GI50,SNB-75 CNS,245 nM
same,outcome,SNB-75 CNS,inactive
same,outcome,NCI-H226 lung,inactive
same,outcome,SNB-19 CNS,inactive
same,outcome,NCI-H23 lung,inactive
same,TGI,M19-MEL melanoma,974 nM
same,GI50,MALME-3M melanoma,136 nM
same,TGI,MALME-3M melanoma,628 nM [middle of 5 runs]
same,outcome,MALME-3M melanoma,inactive
same,GI50,COLO 205 colon,498 nM
same,outcome,COLO 205 colon,inactive
same,outcome,HL-60(TB) leukemia,inactive
same,TGI,HOP-18 NSCLC,13600 nM
same,outcome,HT29 colon,inactive
same,GI50,IGROV1 ovarian,272 nM
same,outcome,IGROV1 ovarian,inactive
same,GI50,HS 578T breast,< 10 nM
same,outcome,HS 578T breast,inactive
same,GI50,ACHN renal,105 nM and 81 nM and 176 nM
same,outcome,ACHN renal,inactive
same,outcome,SR leukemia,inactive
same,outcome,KM12 colon,inactive
same,GI50,LOX IMVI melanoma,39.2 nM and 91.7 nM
same,outcome,U251 CNS,inactive
same,GI50,SF-295 CNS,210 nM
same,outcome,SF-295 CNS,inactive
same,outcome,BT-549 breast,inactive
same,outcome,EKVX NSCLC,inactive
same,GI50,K-562 leukemia,218 nM
same,outcome,K-562 leukemia,inactive
same,outcome,OVCAR-8 ovarian,inactive
same,outcome,786-0 renal,inactive
same,TGI,SK-MEL-5 melanoma,340 nM [middle of 5 runs]
same,outcome,SK-MEL-5 melanoma,inactive
same,outcome,SN12C renal,inactive
same,outcome,T-47D breast,inactive
same,outcome,SK-MEL-2 melanoma,inactive
same,GI50,MDA-MB-231 breast,949 nM
same,TGI,MDA-MB-231 breast,4.83 µM [middle of 4 runs]
same,outcome,MDA-MB-231 breast,inactive
same,GI50,DU-145 prostate,169 nM [middle of 4 runs]
same,outcome,DU-145 prostate,inactive
same,outcome,HCT-116 colon,inactive
same,GI50,RXF 393 renal,402 nM
same,TGI,RXF 393 renal,1.04 µM [middle of 4 runs]
same,outcome,RXF 393 renal,inactive
same,GI50,SF-268 CNS,219 nM
same,outcome,SF-268 CNS,inactive
same,GI50,MOLT-4 leukemia,< 22.1 nM
same,outcome,MOLT-4 leukemia,inactive
same,GI50,HCT-15 colon,3880 nM
same,outcome,HCT-15 colon,inactive
same,TGI,DMS 114 small cell lung,591 nM
same,outcome,TK-10 renal,inactive
same,outcome,CAKI-1 renal,inactive
same,TGI,MDA-N,1110 nM and 1880 nM and 1410 nM
same,outcome,MDA-N,inactive
same,outcome,HCC-2998 colon,inactive
same,GI50,UO-31 renal,1850 nM
same,outcome,UO-31 renal,inactive
same,GI50,A498 renal,81.4 nM and 195 nM
same,TGI,A498 renal,550 nM and 696 nM
same,outcome,A498 renal,inactive
same,outcome,SK-OV-3 ovarian,inactive
same,GI50,NCI-H522 lung,193 nM
same,outcome,NCI-H522 lung,inactive
same,GI50,MDA-MB-435,607 nM
same,TGI,MDA-MB-435,1.87 µM [middle of 4 runs]
same,outcome,MDA-MB-435,inactive
same,GI50,SK-MEL-28 melanoma,593 nM
same,TGI,SK-MEL-28 melanoma,1.7 µM [middle of 4 runs]
same,outcome,SK-MEL-28 melanoma,inactive
same,GI50,HOP-92 NSCLC,306 nM
same,outcome,HOP-92 NSCLC,inactive
same,GI50,A549 NSCLC,109 nM and 60.9 nM and 106 nM
same,outcome,A549 NSCLC,inactive
same,outcome,RPMI-8226 leukemia,inactive
same,GI50,SF-539 CNS,191 nM
same,outcome,SF-539 CNS,inactive
same,outcome,OVCAR-3 ovarian,inactive
same,TGI,KM20L2 colon,15900 nM
same,outcome,MCF7 breast,inactive
same,TGI,DMS 273 small cell lung,2450 nM
same,outcome,CCRF-CEM leukemia,inactive
same,GI50,HOP-62 NSCLC,145 nM
same,outcome,HOP-62 NSCLC,inactive
CCNC(=S)NNC(=O)c1nsc2ccccc12,TGI,SNB-78 CNS,> 100000 nM
same,TGI,NCI-H460 lung,> 100000 nM
same,TGI,M14 melanoma,> 100000 nM
same,TGI,SW-620 colon,> 100000 nM
same,TGI,UACC-62 melanoma,> 100000 nM
same,TGI,OVCAR-5 ovarian,> 100000 nM
same,TGI,LXFL 529 NSCLC,> 100000 nM
same,TGI,UACC-257 melanoma,> 100000 nM
same,TGI,OVCAR-4 ovarian,> 100000 nM
same,TGI,SNB-75 CNS,> 100000 nM
same,TGI,SNB-19 CNS,> 100000 nM
same,TGI,NCI-H23 lung,> 100000 nM
same,TGI,M19-MEL melanoma,> 100000 nM
same,TGI,COLO 205 colon,> 100000 nM
same,TGI,HL-60(TB) leukemia,> 100000 nM
same,TGI,HOP-18 NSCLC,> 100000 nM
same,TGI,HT29 colon,> 100000 nM
same,TGI,IGROV1 ovarian,> 100000 nM
same,TGI,ACHN renal,> 100000 nM
same,TGI,SR leukemia,> 100000 nM
same,TGI,KM12 colon,> 100000 nM
same,TGI,LOX IMVI melanoma,> 100000 nM
same,TGI,U251 CNS,> 100000 nM
same,TGI,EKVX NSCLC,> 100000 nM
same,TGI,K-562 leukemia,> 100000 nM
same,TGI,OVCAR-8 ovarian,> 100000 nM
same,TGI,SK-MEL-5 melanoma,> 100000 nM
same,TGI,SN12C renal,> 100000 nM
same,TGI,SK-MEL-2 melanoma,> 100000 nM
same,TGI,HCT-116 colon,> 100000 nM
same,TGI,RXF 393 renal,> 100000 nM
same,TGI,SF-268 CNS,> 100000 nM
same,TGI,MOLT-4 leukemia,> 100000 nM
same,TGI,HCT-15 colon,> 100000 nM
same,TGI,DMS 114 small cell lung,> 100000 nM
same,TGI,TK-10 renal,> 100000 nM
same,TGI,HCC-2998 colon,> 100000 nM
same,TGI,UO-31 renal,> 100000 nM
same,TGI,SK-MEL-28 melanoma,> 100000 nM
same,TGI,HOP-92 NSCLC,> 100000 nM
same,TGI,A549 NSCLC,> 100000 nM
same,TGI,RPMI-8226 leukemia,> 100000 nM
same,TGI,SF-539 CNS,> 100000 nM
same,TGI,OVCAR-3 ovarian,> 100000 nM
same,TGI,KM20L2 colon,> 100000 nM
same,TGI,DMS 273 small cell lung,> 100000 nM
same,TGI,CCRF-CEM leukemia,> 100000 nM
same,TGI,HOP-62 NSCLC,> 100000 nM
